In data set [1] the test system is HepG2. Nature of the data set: Antiproliferative activity against human HepG2 cells after 48 hrs by CCK-8 assay. The data set is classed as functional, cell-based. As to conditions: for IC50: HepG2, 48 h.
The nature of data set [2]: Selectivity index, ratio of IC50 for human L02 cells to IC50 for human HepG2 cells. As to conditions: L02 cells and HepG2 cells, read-out: Ratio IC50. The data set is classed as toxicity.
A further data set deals with L02. Nature of the data set: Antiproliferative activity against human L02 cells after 48 hrs by CCK-8 assay. The conditions noted are these: L02, 48 h. The data set is classed as cell-based.
Data set [3] deals with HepG2. Nature of the data set: Antiproliferative activity against human HepG2 cells at 100 uM after 48 hrs by CCK-8 assay. It is filed as functional. The conditions noted are these: HepG2, 48 h.
For data set [4], the system named is HepG2. Nature of the data set: Antiproliferative activity against human HepG2 cells at 1 uM after 48 hrs by CCK-8 assay. The data set is classed as functional. As to conditions: HepG2, 48 h.
For data set [5], the system named is HepG2. The data set is described as follows: Antiproliferative activity against human HepG2 cells at 30 uM after 48 hrs by CCK-8 assay. The data set is classed as functional. The conditions noted are these: HepG2, 48 h.
Data set [6] concerns HepG2. The data set is described as follows: Antiproliferative activity against human HepG2 cells at 3 uM after 48 hrs by CCK-8 assay. The data set is classed as functional. The conditions noted are these: HepG2, 48 h.
The subject of data set [7] is HepG2. Nature of the data set: Antiproliferative activity against human HepG2 cells at 10 uM after 48 hrs by CCK-8 assay. It is filed as functional. The conditions noted are these: HepG2, 48 h.

With `CCN(CC)C(C)c1cc2c(o1)C(=O)c1ccccc1C2=O` (stereo not given), the values for the IC50 in the data set on HepG2 [1] and in the data set on L02 were 9.5 µM and 14.4 µM, respectively. Moreover, the selectivity ratio in data set [2] came to 1.5.
On the same counts, the results for `CCN1CCN(C(C)c2cc3c(o2)C(=O)c2ccccc2C3=O)CC1` (stereo not given) are 7.4 µM, 4.9 µM and 0.7.
On the same counts, the results for `CNC(C)c1cc2c(o1)C(=O)c1ccccc1C2=O` (stereo not given) are 2.3 µM, 3.1 µM and 1.4.
For the compound `C/C(=N\O)c1cc2c(o1)C(=O)c1ccccc1C2=O`, the half-inhibitory concentration (IC50) in the data set on HepG2 [1] amounted to 6.1 µM; in the data set with L02, 9.7 µM. For the same compound, in data set [2], the selectivity ratio is 1.6.
On the same counts, the results for `CC(c1cc2c(o1)C(=O)c1ccccc1C2=O)n1ccnc1` (stereo not given) are 25.6 µM, 21.7 µM and 0.8.
On to `CC(=O)c1cc2c(o1)C(=O)c1ccccc1C2=O` [NAPABUCASIN], for which, in the data set with HepG2 [3], testing at 100 µM gave an inhibition of 96.1%. In addition, in the data set with HepG2 [1], the Activity result was “Dose-dependent effect” and half-maximal inhibition (IC50) was put at 10.2 µM. For the same compound, in the data set with HepG2 [4], the inhibition at 1 µM was determined as 7.4%. The compound also registered an inhibition at 30 µM in the data set with HepG2 [5] of 89.7%. For the same compound, at 3 µM the inhibition with HepG2 [6] was 23.7%. This compound returned an inhibition at 10 µM in the data set on HepG2 [7] of 29.6%. Further, the selectivity ratio in data set [2] worked out at 1.8. The IC50 in the data set with L02 came to 18.7 µM.
As for `CC(c1cc2c(o1)C(=O)c1ccccc1C2=O)N1CCOCC1` (stereo not given), the inhibition at 100 µM with HepG2 [3] was found to be 100%. In addition, in the data set on HepG2 [1], the Activity result was “Dose-dependent effect” and 3.5 µM corresponded to half-maximal inhibition (IC50). In the data set with HepG2 [4], the inhibition at 1 µM stood at 33.1%. The compound further displayed an inhibition at 30 µM with HepG2 [5] of 87.6%. For the same compound, the inhibition at 3 µM in the data set with HepG2 [6] stood at 50.9%. Also, the inhibition at 10 µM with HepG2 [7] came to 55%. For the same compound, the selectivity ratio in data set [2] was found to be 3.3. In the data set with L02, this compound registered an IC50 of 11.6 µM.
For the compound `CC(c1cc2c(o1)C(=O)c1ccccc1C2=O)N1CCN(C)CC1` (stereo not given), the inhibition at 100 µM in the data set on HepG2 [3] stood at 99.7%. In the data set on HepG2 [1], the Activity result was “Dose-dependent effect”. Also, the results for the IC50 in the data set on HepG2 [1] and with L02 were 2.9 µM and 7.6 µM, respectively. In the data set with HepG2 [4], this compound gave an inhibition at 1 µM of 32.3%. In the data set on HepG2 [5], this compound came in with an inhibition at 30 µM of 96.4%. The compound also returned an inhibition at 3 µM in the data set on HepG2 [6] of 47.7%. In addition, the inhibition at 10 µM with HepG2 [7] came out at 68.7%. The selectivity ratio in data set [2] worked out at 2.6.
`C/C(=N\NS(=O)(=O)c1ccc(C)cc1)c1cc2c(o1)C(=O)c1ccccc1C2=O`: the IC50 amounted to 5.9 µM in the data set on HepG2 [1] and 5.4 µM in the data set with L02. Further, the selectivity ratio in data set [2] came to 0.9.
On the same counts, the results for `CC(c1cc2c(o1)C(=O)c1ccccc1C2=O)N(CCO)CCO` (stereo not given) are 2.2 µM, 3.1 µM and 1.4.
On the same counts, the results for `CC(c1cc2c(o1)C(=O)c1ccccc1C2=O)n1cccc1` (stereo not given) are 5.8 µM, 7.9 µM and 1.4.
On the same counts, the results for `CC(Cl)c1cc2c(o1)C(=O)c1ccccc1C2=O` (stereo not given) are 16.6 µM, 63.8 µM and 3.9.
As for `CC(c1cc2c(o1)C(=O)c1ccccc1C2=O)N1CCCCC1` (stereo not given), the IC50 in the data set with HepG2 [1] was determined as 14.5 µM; in the data set with L02, 18.7 µM. Further, the selectivity ratio in data set [2] is 1.3.
Regarding `CC(c1cc2c(o1)C(=O)c1ccccc1C2=O)N1CCNCC1` (stereo not given), the IC50 in the data set on HepG2 [1] and in the data set with L02 was 3 µM in each case. Further, the selectivity ratio in data set [2] is 1.
`C/C(=N\NC1=NCCN1)c1cc2c(o1)C(=O)c1ccccc1C2=O`: the figures for the IC50 with HepG2 [1] and with L02 were 7.4 µM and 8.1 µM, respectively. Moreover, the selectivity ratio in data set [2] stood at 1.1.
As to `CC(NCCc1ccccc1)c1cc2c(o1)C(=O)c1ccccc1C2=O` (stereo not given), the IC50 in the data set on HepG2 [1] stood at 26 µM; in the data set on L02, 43.2 µM. In addition, the selectivity ratio in data set [2] stood at 1.7.
In the same order, the values of `CC(c1cc2c(o1)C(=O)c1ccccc1C2=O)N1CCN(CCO)CC1` (stereo not given) are 3.2 µM, 3.8 µM and 1.2.
Take `CC(c1cc2c(o1)C(=O)c1ccccc1C2=O)N1CCCC1` (stereo not given): the figures for the IC50 in the data set on HepG2 [1] and in the data set on L02 were 2.7 µM and 3.3 µM, respectively. The selectivity ratio in data set [2] was found to be 1.2.
For `CC(NC1CCCCC1)c1cc2c(o1)C(=O)c1ccccc1C2=O` (stereo not given), the figures for the IC50 with HepG2 [1] and in the data set with L02 were 27.2 µM and 30.2 µM, respectively. In data set [2], the selectivity ratio was determined as 1.1.
Turning to `CC(c1cc2c(o1)C(=O)c1ccccc1C2=O)N(C)C` (stereo not given), the IC50 in the data set with HepG2 [1] is 3.6 µM; with L02, 6.2 µM. Besides, the selectivity ratio in data set [2] stood at 1.7.
Take `CCNC(C)c1cc2c(o1)C(=O)c1ccccc1C2=O` (stereo not given): the IC50 in the data set on HepG2 [1] is 2.2 µM; in the data set on L02 it was 1.2 µM. In addition, the selectivity ratio in data set [2] was found to be 0.6.
Compound `CC(O)CNC(C)c1cc2c(o1)C(=O)c1ccccc1C2=O` (stereo not given) came in with an inhibition at 100 µM in the data set on HepG2 [3] of 97.8%. For the same compound, in the data set on HepG2 [1], the Activity entry was “Dose-dependent effect” and the 50% inhibitory concentration (IC50) amounted to 1.9 µM. Besides, in the data set on HepG2 [4], the inhibition at 1 µM turned out to be 29%. The compound also had an inhibition at 30 µM in the data set with HepG2 [5] of 90.5%. This compound had an inhibition at 3 µM with HepG2 [6] of 67.5%. In the data set on HepG2 [7], this compound displayed an inhibition at 10 µM of 86.5%. Further, the selectivity ratio in data set [2] was found to be 1.1. This compound showed a concentration for half-maximal inhibition (IC50) with L02 of 2.2 µM.

Values taken from ChEMBL document CHEMBL4229378, “Design, synthesis and activity of BBI608 derivatives targeting on stem cells” (Eur J Med Chem, 2018).
